In patent publication US20250283871A1, “COMPOSITIONS AND METHODS FOR MODULATING THE INTERACTION BETWEEN SS18-SSX FUSION ONCOPROTEIN AND NUCLEOSOMES” (Dana-Farber Cancer Institute, Inc., priority 2020, published 2025):

Columns and labels:
BAF complex components = test: anti-SMARCA4 (BRG1) IP mass spectrometry (Tables 7A-7C); format: cell-based, human; conditions: Aska-SS cells -/+ shSSX
Protocol: Peptide abundance normalized to SMARCA4 abundance. […] SMARCC1, SS18, GFP, SMARCB1, and TBP levels are shown. […] T indicates 0-40 min timecourse; n=3 experimental replicates at each time point; error bars represent standard deviation.
Nuclear extracts were quantified by Bradford assay and 150-200 μg of protein was incubated with 2 μg of antibody in Buffer EB300 (50 mM Tris pH 7.5, 0.1% NP-40, 1 mM EDTA, 1 mM MgCl2, […] with protease inhibitor (Roche, C756U27), 1 mM DTT and 1 mM phenylmethylsulfonyl fluoride (PMSF)) overnight at 4° C. Each sample was then incubated with Protein G Dynabeads® (Thermo Scientific) for 2-3 hours. Beads were washed three times with Buffer EB300 followed by elution with 20 μL of elution buffer (NuPage™ LDS buffer (2×) (Life Technologies) containing 100 mM DTT and water).

[1] = system: recombinant H2AK119Ub mono-nucleosomes; test: Pull downs with WT or H2A K119Ub nucleosomes; format: binding
Protocol: (§1) The flow through was removed, the immobilized bait was incubated with 1-2 μg of purified mammalian mono-nucleosomes from HEK293T cells, recombinant mono-nucleosomes (EpiCypher, 16-0006), recombinant H2AK119Ub mono-nucleosomes (EpiCypher, 16-0020) or recombinant protein for 3 hours at 4° C., and the beads were washed 3× with EB150 buffer and then eluted in 2×LDS with 200 mM DTT with heating at 95° C. for 5 minutes. The pull downs were then visualized by immunoblot analysis or colloidal blue staining.

Barr bodies (inactive X) = test: Immunofluorescence, Barr body localization; format: cell-based, human; conditions: 293T cells, versus DMSO control
Protocol: Immunofluorescent images were obtained as previously described (Daou et al. (2011) Pro. Nat. Acad. Sci. U.S.A 108:2747-2752). Following lentiviral infection and/or drug treatment, cells were prepared by fixation in 3% PFA-PBS and then were permeabilized with PBS 0.1% NP40. Following incubation with primary antibodies, the Anti-rabbit Alexa Fluor® 594 and Anti-mouse Alexa Fluor® 488 (Life Technologies) secondary antibodies were used for visualization. Staining with 4′,6-diamidino-2-phenylindole (DAPI) was used to visualize nuclei. Images were acquired using Zeiss Axio Imager Z2 microscope and images were processed using ImageJ program (NIH).

[2] = system: mammalian mononucleosomes from HEK293T cells; test: Protein and peptide pull downs with mammalian mononucleosomes; format: binding, human; conditions: mammalian mononucleosomes
Protocol: as §1
Mammalian mononucleosomes were purified from HEK293T cells similar to as previously described (Mashtalir et al. (2014) Mol. Cell 54:392-406). Cells were scraped from plates, washed with cold PBS, and centrifuged at 5,000 rpm for 5 min at 4° C. Pellets were resuspended in hypotonic buffer (EBO: 50 mM Tris HCl, pH 7.5, 1 mM EDTA, 1 mM MgCl2, 0.1% NP40 supplemented with 1 mM DTT, 1 mM PMSF, and protease inhibitor cocktail (Roche, C756U27) and incubated for 5 min on ice. The suspension was centrifuged at 5,000 rpm for 5 min at 4° C., and pellets were resuspended in 5 volumes of EB420 (EBO: 50 mM Tris HCl, pH 7.5, 420 mM NaCl, 1 mM MgCl2, 0.1% NP40 with supplemented with 1 mM DTT and 1 mM PMSF containing protease inhibitor cocktail (Roche, C756U27). Homogenate incubated on rotator for 1 hour at 4° C. The supernatant was then centrifuged at 20,000 rpm (30,000×g) for 1 hour at 4° C. using a SW32Ti rotor. Supernatant was then discarded and chromatin pellet was washed in MNAse buffer (20 mM Tris-HCl pH 7.5, 100 mM KCl, 2 mM MgCl2, 1 mM CaCl2, […] sucrose, 0.1% NP-40, and protease inhibitor cocktail) three times. Following MNase treatment (3 U/mL for 30 min at room temperature, Sigma-Aldrich), the reaction was quenched with 5 mM of EGTA and 5 mM of EDTA. The samples were then centrifuged at 20,000×g for 1 hour at 4° C. to obtain the soluble chromatin fraction. Soluble chromatin fraction was loaded onto 10-30% glycerol gradient (Mashtalir et al. (2014) Mol. Cell 54:392-406) and fractions containing mononucleosomes were isolated and concentrated using centrifugal filter (Amicon, EMD Millipore).

Compound	Aska (shControl)/Aska (shSS18-SSX) LFQ Intensity (Norm to SMARCA4 Rep 1) (BAF complex components)	Aska (shControl)/Aska (shSS18-SSX) LFQ Intensity (Norm to SMARCA4 Rep 2) (BAF complex components)	nucleosome binding in pull-down [2]	further results
ARID1B: BAF complex subunit quantified in the IP MS	0.7212	0.6498		
mutation of the C-terminal acidic region of SSX to alanines: GST-SSX with acidic C-term DPEEDDE replaced by AAAAAAA (SGPKRGKHAWTHRLRERKQLVIYEEISAAAAAAA)				affinity to H2A K119Ub-decorated nucleosomes, pulldown ([1]; H3 immunoblot): relieved the preference of SSX for H2AK119Ub nucleosomes; SSX binding to nucleosomes ([1]; WT or H2A K119Ub nucleosomes): not altering SSX binding to nucleosomes
BCL7C: BAF complex subunit quantified in the IP MS	1.744	1.537		
CCCc1cc(C)[nH]c(=O)c1CNC(=O)c1cc(-c2ccc(N3CCN(C(C)C)CC3)nc2)cc2c1cnn2C(C)C [EZH2 inhibitor, reference compound]				SS18-SSX foci localized to Barr bodies after treatment (Barr bodies (inactive X)): no change to SS18-SSX foci localized to Barr bodies
SSX aa165-188: biotinylated 24-residue SSX peptide lacking the W164 residue			failed to do so	
SSX aa166-188: biotinylated 23-residue SSX peptide lacking the W164 residue			failed to do so	
